Source: patent US11660293B2, “Substituted 2-azabicyclo[3.1.1]heptane and 2-azabicyclo[3.2.1]octane derivatives as orexin receptor antagonists” (Chronos Therapeutics Limited, priority 2017, dated 2023)

Tests used:
[1] = biological target: human Orexin type 1 receptors (Homo sapiens (Human), UniProt O43613); assay: Scintillation Proximity Assay (SPA) binding assay, [3H]SB-674042 displacement, CHO-hOX1 membranes
[2] = biological target: human Orexin type 2 receptors (Homo sapiens (Human), UniProt O43614); assay: Scintillation Proximity Assay (SPA) binding assay, [3H]EMPA displacement, HEK-hOX2 membranes
human Orexin type 2 receptors, sequence (O43614 whole entry): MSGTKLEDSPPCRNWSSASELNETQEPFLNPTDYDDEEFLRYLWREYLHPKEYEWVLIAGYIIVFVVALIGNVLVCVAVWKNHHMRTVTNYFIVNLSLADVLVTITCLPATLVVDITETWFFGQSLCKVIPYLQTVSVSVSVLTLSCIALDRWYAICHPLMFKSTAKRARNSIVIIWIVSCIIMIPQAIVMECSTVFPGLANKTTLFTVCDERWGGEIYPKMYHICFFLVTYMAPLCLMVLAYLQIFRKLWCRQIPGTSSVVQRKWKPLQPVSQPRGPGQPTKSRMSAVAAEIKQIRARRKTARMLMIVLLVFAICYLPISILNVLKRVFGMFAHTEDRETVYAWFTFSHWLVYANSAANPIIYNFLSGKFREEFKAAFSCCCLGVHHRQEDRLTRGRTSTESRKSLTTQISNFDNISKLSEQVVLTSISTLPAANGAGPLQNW

human Orexin type 1 receptors, sequence (O43613 whole entry): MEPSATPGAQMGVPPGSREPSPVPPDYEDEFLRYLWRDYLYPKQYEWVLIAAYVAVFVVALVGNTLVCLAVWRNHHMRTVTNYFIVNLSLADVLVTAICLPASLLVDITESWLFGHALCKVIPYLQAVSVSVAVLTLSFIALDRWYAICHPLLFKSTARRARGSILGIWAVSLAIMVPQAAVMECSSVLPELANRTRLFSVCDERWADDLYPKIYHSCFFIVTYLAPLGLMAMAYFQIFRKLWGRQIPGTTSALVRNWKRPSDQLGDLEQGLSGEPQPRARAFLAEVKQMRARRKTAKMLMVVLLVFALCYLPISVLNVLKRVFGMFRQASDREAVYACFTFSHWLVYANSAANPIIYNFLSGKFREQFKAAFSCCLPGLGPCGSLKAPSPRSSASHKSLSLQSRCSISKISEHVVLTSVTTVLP

| SMILES | OX1 pKi (SPA binding) ([1]; Table 1, [3H]SB-674042 2 nM) | OX2 pKi (SPA binding) ([2]; Table 1, [3H]EMPA 2 nM) | OX1 pKi (SPA binding) ([1]; Table 2, [3H]SB-674042 2 nM) | OX2 pKi (SPA binding) ([2]; Table 2, [3H]EMPA 2 nM) |
| --- | --- | --- | --- | --- |
| Cc1nc(C(=O)N2C3CC(C3)[C@H](F)[C@H]2COc2ccc(F)cn2)c(-c2ccccc2)s1 (single isomer, unassigned) [Example 63, (3R,4S or 3S,4R)-4-fluoro-3-{[(5-fluoropyridin-2-yl)oxy]methyl}-2-(2-methyl-5-phenyl-1,3-thiazole-4-carbonyl)-2-azabicyclo[3.1.1]heptane] | 8.06 | 6.37 | – | – |
| Cc1ccc(-c2nccs2)c(C(=O)N2C3CC(C3)[C@@H](C)C2CNc2ccc(F)cc2)c1 (stereo partly drawn) [Example 202, cis-4-fluoro-N-({4-methyl-2-[5-methyl-2-(1,3-thiazol-2-yl)benzoyl]-2-azabicyclo[3.1.1]heptan-3-yl}methyl)aniline] | – | – | 6.71 | 6.02 |
| Cc1ccc(-n2nccn2)c(C(=O)N2C3CC(C3)[C@@H](C)C2CNc2ccc(C(F)(F)F)cn2)n1 (mixture of isomers) [Example 181, cis-N-({4-methyl-2-[6-methyl-3-(2H-1,2,3-triazol-2-yl)pyridine-2-carbonyl]-2-azabicyclo[3.1.1]heptan-3-yl}methyl)-5-(trifluoromethyl)pyridin-2-amine] | – | – | 8.09 | 5.09 |
| Cc1cccc(-c2sc(C)nc2C(=O)N2C3CC(C3)[C@@H](C)C2COc2ccc(F)cc2)n1 (mixture of isomers) [Example 137, cis-3-[(4-fluorophenoxy)methyl]-4-methyl-2-[2-methyl-5-(6-methylpyridin-2-yl)-1,3-thiazole-4-carbonyl]-2-azabicyclo[3.1.1]heptane] | – | – | 7.97 | 6.34 |
| Cc1nc(C(=O)N2C(COc3nc4ccc(F)cc4s3)CC3CC2C3)c(-c2ccccc2)s1 (centres unmarked) [Example 54] | 7.77 | 7.03 | – | – |
| Cc1ccc(-c2ccccn2)c(C(=O)N2C3CC(C3)[C@@H](C)C2COc2ccc(F)cn2)n1 (mixture of isomers) [Example 131, cis-2′-(3-{[(-fluoropyridin-2-yl)oxy]methyl}-4-methyl-2-azabicyclo[3.1.1]heptane-2-carbonyl)-6′-methyl-2,3′-bipyridine] | – | – | 7.02 | 6.1 |
| Cc1ccc(-n2nccn2)c(C(=O)N2C3CC(C3)[C@H](C)C2COc2ccc(F)c(F)c2)n1 (mixture of isomers) [Example 111, trans-3-[(3,4-difluorophenoxy)methyl]-4-methyl-2-[6-methyl-3-(2H-1,2,3-triazol-2-yl)pyridine-2-carbonyl]-2-azabicyclo[3.1.1]heptane] | 7.53 | 5.99 | – | – |
| Cc1nc(C(=O)N2C3CC(C3)[C@@H](C)C2COc2ccc(F)cc2)c(-n2nccn2)s1 (stereo partly drawn) [Example 140, cis-3-[(4-flurophenoxy)methyl]-4-methyl-2-[2-methyl-5-(2H-1,2,3-triazol-2-yl)-1,3-thiazole-4-carbonyl]-2-azabicyclo[3.1.1]heptane] | – | – | 7.49 | 6.22 |
| Cc1ccc(-c2nccs2)c(C(=O)N2C3CC(C3)[C@@H](C)C2COc2ccc(F)cc2)n1 (mixture of isomers) [Example 96, cis-3-[(4-fluorophenoxy)methyl]-4-methyl-2-[6-methyl-3-(1,3-thiazol-2-yl)pyridine-2-carbonyl]-2-azabicyclo[3.1.1]heptane] | 8.18 | 6.88 | – | – |
| C[C@@H]1C2CC(C2)N(C(=O)c2cc(F)ccc2-n2nccn2)C1CNc1nc2ccc(F)cc2s1 (single isomer, unassigned) [Example 170, 6-fluoro-N-({(3R,4S) or (3S,4R)2-[5-fluoro-2-(2H-1,2,3-triazol-2-yl)benzoyl]-4-methyl-2-azabicyclo[3.1.1]heptan-3-yl}methyl)-1,3-benzothiazol-2-amine] | – | – | 8.86 | 5.99 |
| Cc1nc(C(=O)N2C(COc3ccc(Cl)cc3)CC3CC2C3)c(-c2ccccc2)s1 (centres unmarked) [Example 49] | 7.88 | 6.81 | – | – |
| C[C@@H]1C2CC(C2)N(C(=O)c2cc(Cl)ccc2-n2nccn2)C1CNc1cnc2ncccc2n1 (mixture of isomers) [Example 206, cis-N-({2-[5-chloro-2-(2H-1,2,3-triazol-2-yl)benzoyl]-4-methyl-2-azabicyclo[3.1.1]heptan-3-yl}methyl)pyrido[2,3-b]pyrazin-2-amine] | – | – | 7.79 | 5.06 |
| Cc1cnc(-c2ccc(C)nc2C(=O)N2C3CC(C3)[C@@H](C)C2COc2ccc(F)cc2)nc1 (mixture of isomers) [Example 138, cis-3-[(4-fluorophenoxy)methyl]-4-methyl-2-[6-methyl-3-(5-methylpyrimidin-2-yl)pyridine-2-carbonyl]-2-azabicyclo[3.1.1]heptane] | – | – | 8.08 | 7.05 |
| C[C@@H]1C2CC(C2)N(C(=O)c2nn(C)cc2-c2ccccc2)C1CNc1ccc(C(F)(F)F)cn1 (single isomer, unassigned) [Example 211, N-{[(3S,4R) or (3R,4R)-4-methyl-2-(1-methyl-4-phenyl-1H-pyrazole-3-carbonyl)-2-azabicyclo[3.1.1]heptan-3-yl]methyl}-5-(trifluoromethyl)pyridin-2-amine] | – | – | 8.91 | 6.25 |
| Cc1ccc(-n2nccn2)c(C(=O)N2C3CC(C3)[C@@H](C)C2CNc2cnc(C(F)(F)F)cn2)c1 (single isomer, unassigned) [Example 256, N-{[(3R,4S) or (3S,4R)-4-methyl-2-[5-methyl-2-(2H-1,2,3-triazol-2-yl)benzoyl]-2-azabicyclo[3.1.1]heptan-3-yl]methyl}-5-(trifluoromethyl)pyrazin-2-amine] | – | – | 8.75 | 5.18 |
| Cc1ccc(-n2nccn2)c(C(=O)N2C3CC(C3)[C@@H](C)C2CNc2cnc3cc(F)ccc3n2)n1 (single isomer, unassigned) [Example 200, 6-fluoro-N-{[(3R,4S) or (3S,4R)-4-methyl-2-[6-methyl-3-(2H-1,2,3-triazol-2-yl)pyridine-2-carbonyl]-2-azabicyclo[3.1.1]heptan-3-yl]methyl}quinoxalin-2-amine] | – | – | 8.24 | 6.37 |
| Cc1ccc(-n2nccn2)c(C(=O)N2C3CC(C3)[C@H](C)C2COc2ccc(F)cc2)c1 (stereo partly drawn) [Example 109, trans-3-[(4-fluorophenoxy)methyl]-4-methyl-2-[5-methyl-2-(2H-1,2,3-triazol-2-yl)benzoyl]-2-azabicyclo[3.1.1]heptane] | 7.51 | 5.89 | – | – |
| Cc1nc(C(=O)N2C3CC(C3)[C@H](C)C2COc2ccc(F)cc2)c(-c2ncccn2)s1 (mixture of isomers) [Example 113, trans-3-[(4-fluorophenoxy)methyl]-4-methyl-2-[2-methyl-5-(pyrimidin-2-yl)-1,3-thiazole-4-carbonyl]-2-azabicyclo[3.1.1]heptane] | – | – | 8.21 | 5.72 |
| Cc1nc(C(=O)N2C3CC(C3)[C@H](C)C2COc2ccc(F)cn2)c(-c2ncccn2)s1 (mixture of isomers) [Example 116, trans-3-{[(5-fluoropyridin-2-yl)oxy]methyl}-4-methyl-2-[2-methyl-5-(pyrimidin-2-yl)-1,3-thiazole-4-carbonyl]-2-azabicyclo[3.1.1]heptane] | – | – | 7.32 | 5.26 |
